From patent EP2070932A1, “Pyrazolotriazines” (4SC AG, priority 2007, dated 2009) come the findings set out here.

The structures appear in SMILES notation. Where a name gives a salt, the structure may show the parent alone.

The subject of one assay is RKO p27 uninduced (proliferating). The experiment in a line: Alamar Blue cell viability assay, anti-proliferative / cytotoxic activity on proliferating RKO cells. Conditions: Homo sapiens, RKOp27, 72 h, read-out: -log EC50 [mol/l] RKO p27 uninduced (proliferating) (converted). The format is cell-based, human. The procedure:
The anti-proliferative / cytotoxic activity of the compounds described herein can be tested on subclones of RKO human colon adenocarcinoma cells (Schmidt et al., Oncogene 19, 2423-2429; 2000) using the Alamar Blue cell viability assay (described in O'Brien et al. Eur J Biochem 267, 5421-5426, 2000). The compounds are dissolved as 10 mM solutions in DMSO and subsequently diluted in semi-logarithmic steps. DMSO dilutions are further diluted 1:100 v:v into Dulbecco's modified Eagle's medium (DMEM) containing 10% fetal calf serum to a final concentration twice as much as the final concentration in the test. RKO subclones are seeded into 96 well flat bottom plates at a density of 4000 cells per well in a volume of 50 µl per well. 24 hours after seeding the 50 µl each of the compound dilutions in DMEM medium are added into each well of the 96 well plate. Each compound dilution is tested as triplicates. Wells containing untreated control cells are filled with 50 µl DMEM medium containing 1% DMSO. The cells are then incubated with the substances for 72 hours at 37°C in a humidified atmosphere containing 5% carbon dioxide. To determine the viability of the cells, 10 µl of an Alamar Blue solution (Biosource) are added and the fluorescence is measured at an extinction of 544 nm and an emission of 590 nm. For the calculation of the cell viability the emission value from untreated cells is set as 100% viability and the emission rates of treated cells are set in relation to the values of untreated cells. Viabilities are expressed as % values. The Graphpad Prism program is used for the calculation of EC50 values for anti-proliferative / cytotoxic activity out of the obtained dose-response curves. […]
A general note: The colour change of resazurin is a common sign of viable cells or microbes.
Regarding `Cc1nn2c(=O)n(Cc3ccccc3)c(C(C(C)C)N(CCCN)C(=O)c3ccc(Cl)c(Cl)c3)nc2c1Cl` (racemic) [Example 11, N-(3-Amino-n-propyl)-N-[(RS)-1-(3-benzyl-8-chloro-7-methyl-4-oxo-3,4-dihydro-pyrazolo[1,5-a][1,3,5]triazin-2-yl)-2-methyl-n-propyl]-3,4-dichloro-benzamide hydrocloride], the EC50 was 100 to 1000 nM.

Consider `Cc1ccc(C(=O)N(CCCCN)C(c2nc3c(Cl)c(C)nn3c(=O)n2Cc2ccccc2)C(C)C)cc1` (racemic) [Example 16, N-(4-Amino-n-butyl)-N-[(RS)-1-(3-benzyl-8-chloro-7-methyl-4-oxo-3,4-dihydro-pyrazolo[1,5-a][1,3,5]triazin-2-yl)-2-methyl-n-propyl]-4-methyl-benzamide hydrocloride], for which the EC50 is 100 to 1000 nM.

Staying with this assay, now noted: Homo sapiens, RKOp27; RKO colon cancer cells, without Ponasterone A, 72 hours incubation, Alamar Blue; read-out: -log EC50 [mol/l] RKO p27 uninduced (proliferating) (converted).
On to `Cc1ccc(C(=O)N(CCCN)C(c2nc3c(Cl)c(C)nn3c(=O)n2Cc2ccccc2)C(C)C)cc1` (racemic) [Example 1, N-(3-Amino-n-propyl)-N-[(RS)-1-(3-benzyl-8-chloro-7-methyl-4-oxo-3,4-dihydro-pyrazolo[1,5-a][1,3,5]triazin-2-yl)-2-methyl-n-propyl]-4-methyl-benzamide hydrochloride], for which the EC50 was no more than 100 nM. As to `Cc1ccc(C(=O)N(CCN)C(c2nc3c(Cl)c(C)nn3c(=O)n2Cc2ccccc2)C(C)C)cc1` (racemic) [Example 2, N-(2-Amino-ethyl)-N-[(RS)-1-(3-benzyl-8-chloro-7-methyl-4-oxo-3,4-dihydro-pyrazolo[1,5-a][1,3,5]triazin-2-yl)-2-methyl-n-propyl]-4-methyl-benzamide hydrochloride], the EC50 was no more than 100 nM.

As to `Cc1ccc(C(=O)N(CCCN)C(c2nc3c(Cl)cnn3c(=O)n2Cc2ccccc2)C(C)C)cc1` (racemic) [Example 4, N-(3-Amino-n-propyl)-N-[(RS)-1-(3-benzyl-8-chloro-4-oxo-3,4-dihydro-pyrazolo[1,5-a][1,3,5]triazin-2-yl)-2-methyl-n-propyl]-4-methyl-benzamide hydrochloride], the EC50 was no more than 100 nM. On the same count and under the same terms, the figure for `Cc1nn2c(=O)n(Cc3ccccc3)c(C(C(C)C)N(CCCN)C(=O)c3ccc(Cl)cc3)nc2c1Cl` (racemic) [Example 5, N-(3-Amino-n-propyl)-N-[(RS)-1-(3-benzyl-8-chloro-7-methyl-4-oxo-3,4-dihydro-pyrazolo[1,5-a][1,3,5]triazin-2-yl)-2-methyl-n-propyl]-4-chloro-benzamide hydrochloride] is no more than 100 nM; for `Cc1nn2c(=O)n(Cc3ccccc3)c(C(C(C)C)N(CCCN)C(=O)c3ccc(F)cc3)nc2c1Cl` (racemic) [Example 6, N-(3-Amino-n-propyl)-N-[(RS)-1-(3-benzyl-8-chloro-7-methyl-4-oxo-3,4-dihydro-pyrazolo[1,5-a][1,3,5]triazin-2-yl)-2-methyl-n-propyl]-4-fluoro-benzamide hydrochloride] it is 100 to 1000 nM. With `Cc1cccc(C(=O)N(CCCN)C(c2nc3c(Cl)c(C)nn3c(=O)n2Cc2ccccc2)C(C)C)c1` (racemic) [Example 7, N-(3-Amino-n-propyl)-N-[(RS)-1-(3-benzyl-8-chloro-7-methyl-4-oxo-3,4-dihydro-pyrazolo[1,5-a][1,3,5]triazin-2-yl)-2-methyl-n-propyl]-3-methyl-benzamide hydrochloride], the EC50 was no more than 100 nM.

Take `Cc1nn2c(=O)n(Cc3ccccc3)c(C(C(C)C)N(CCCN)C(=O)c3ccc(Br)cc3)nc2c1Cl` (racemic) [Example 8, N-(3-Amino-n-propyl)-N-[(RS)-1-(3-benzyl-8-chloro-7-methyl-4-oxo-3,4-dihydro-pyrazolo[1,5-a][1,3,5]triazin-2-yl)-2-methyl-n-propyl]-4-bromo-benzamide hydrochloride]: the EC50 is no more than 100 nM. As for `Cc1ccc(C(=O)N(CCCN)C(c2nc3cc(OC(F)F)nn3c(=O)n2Cc2ccccc2)C(C)C)cc1` (racemic) [Example 10, N-(3-Amino-n-propyl)-N-{(RS)-1-[3-benzyl-7-(1,1-difluoro-methoxy)-4-oxo-3,4-dihydro-pyrazolo[1,5-a] [1,3,5]triazin-2-yl]-2-methyl-n-propyl}-4-methyl-benzamide hydrochloride], the EC50 is no more than 100 nM. As for `Cc1nn2c(=O)n(Cc3ccccc3)c(C(C(C)C)N(CCCN)C(=O)c3cccc(Cl)c3Cl)nc2c1Cl` (racemic) [Example 14, N-(3-Amino-n-propyl)-N-[(RS)-1-(3-benzyl-8-chloro-7-methyl-4-oxo-3,4-dihydro-pyrazolo[1,5-a][1,3,5]triazin-2-yl)-2-methyl-n-propyl]-2,3-dichloro-benzamide hydrochloride], the EC50 is 100 to 1000 nM. Take `COc1ccc(C(=O)N(CCCN)C(c2nc3c(Cl)c(C)nn3c(=O)n2Cc2ccccc2)C(C)C)cc1` (racemic) [Example 15, N-(3-Amino-n-propyl)-N-[(RS)-1-(3-benzyl-8-chloro-7-methyl-4-oxo-3,4-dihydro-pyrazolo[1,5-a][1,3,5]triazin-2-yl)-2-methyl-n-propyl]-4-methoxy-benzamide hydrochloride]: the EC50 was no more than 100 nM. In the case of `Cc1ccc(C(=O)N(CCCN)C(c2nc3c(Cl)c(OC(F)F)nn3c(=O)n2Cc2ccccc2)C(C)C)cc1` (racemic) [Example 17, N-(3-Amino-n-propyl)-N-{(RS)-1-[3-benzyl-8-chloro-7-(1,1-difluoro-methoxy)-4-oxo-3,4-dihydro-pyrazolo[1,5-a] [1,3,5]triazin-2-yl]-2-methyl-n-propyl}-4-methyl-benzamide hydrochloride], the EC50 is no more than 100 nM. In the case of `COc1cc2nc(C(C(C)C)N(CCCN)C(=O)c3ccc(C)cc3)n(Cc3ccccc3)c(=O)n2n1` (racemic) [Example 20, N-(3-Amino-n-propyl)-N-[(RS)-1-(3-benzyl-7-methoxy-4-oxo-3,4-dihydro-pyrazolo[1,5-a][1,3,5]triazin-2-yl)-2-methyl-n-propyl]-4-methyl-benzamide hydrochlorid], the EC50 is no more than 100 nM. Turning to `COc1nn2c(=O)n(Cc3ccccc3)c(C(C(C)C)N(CCCN)C(=O)c3ccc(C)cc3)nc2c1Cl` (racemic) [Example 21, N-(3-Amino-n-propyl)-N-[(RS)-1-(3-benzyl-8-chloro-7-methoxy-4-oxo-3,4-dihydro-pyrazolo[1,5-a][1,3,5]triazin-2-yl)-2-methyl-n-propyl]-4-methyl-benzamide hydrochloride], the EC50 is no more than 100 nM.

The assay is the same for the next values; noted with them: RKO colon cancer cells, without Ponasterone A, 72 hours incubation, Alamar Blue.
Turning to `Cc1ccc(C(=O)N(CCCN)C(c2nc3c(Cl)c(C)nn3c(=O)n2Cc2ccccc2)C(C)C)cc1` (racemic) [Example 1a, N-(3-Amino-n-propyl)-N-[(RS)-1-(3-benzyl-8-chloro-7-methyl-4-oxo-3,4-dihydro-pyrazolo[1,5-a][1,3,5]triazin-2-yl)-2-methyl-n-propyl]-4-methyl-benzamide], the “-log EC50 [mol/l] RKO p27 uninduced (proliferating)” value (shortened to “-log EC50 [mol/l] RKO p27 uninduced”) is “-log EC50 [mol/l] RKO p27 uninduced (proliferating) >= 7.0”. The same measure, in the same setting: the same measure for `Cc1nn2c(=O)n(Cc3ccccc3)c(C(C(C)C)N(CCCN)C(=O)c3ccc(C(F)(F)F)cc3)nc2c1Cl.Cl` (racemic) [Example 9, N-(3-Amino-n-propyl)-N-[(RS)-1-(3-benzyl-8-chloro-7-methyl-4-oxo-3,4-dihydro-pyrazolo[1,5-a][1,3,5]triazin-2-yl)-2-methyl-n-propyl]-trifluoromethyl-benzamide hydrochloride]: “-log EC50 [mol/l] RKO p27 uninduced (proliferating) >= 7.0”; for `Cc1ccc(C(=O)N(CCCN)C(c2nc3c(Cl)c(C)nn3c(=O)n2Cc2ccccc2)C(C)C)c(F)c1.Cl` (racemic) [Example 12, N-(3-Amino-n-propyl)-N-[(RS)-1-(3-benzyl-8-chloro-7-methyl-4-oxo-3,4-dihydro-pyrazolo[1,5-a][1,3,5]triazin-2-yl)-2-methyl-n-propyl]-2-fluoro-4-methyl-benzamide hydrocloride]: “-log EC50 [mol/l] RKO p27 uninduced (proliferating) >= 7.0”.

`Cc1ccc(C(=O)N(CCCN)C(c2nc3c(Cl)c(C)nn3c(=O)n2Cc2ccccc2)C(C)C)cc1F.Cl` (racemic) [Example 13, N-(3-Amino-n-propyl)-N-[(RS)-1-(3-benzyl-8-chloro-7-methyl-4-oxo-3,4-dihydro-pyrazolo[1,5-a][1,3,5]triazin-2-yl)-2-methyl-n-propyl]-3-fluoro-4-methyl-benzamide hydrocloride]: the “-log EC50 [mol/l] RKO p27 uninduced” value is “-log EC50 [mol/l] RKO p27 uninduced (proliferating) >= 7.0”. In the case of `Cc1ccc(C(=O)N(CCCN(C)C)C(c2nc3c(Cl)c(C)nn3c(=O)n2Cc2ccccc2)C(C)C)cc1` (racemic) [Example 19, N-[(RS)-(3-Benzyl-8-chloro-7-methyl-4-oxo-3,4-dihydro-pyrazolo[1,5-a][1,3,5]triazin-2-yl)-methyl-n-propyl]-N-(3-dimethylamino-n-propyl)-4-methyl-benzamide], the “-log EC50 [mol/l] RKO p27 uninduced” value was “-log EC50 [mol/l] RKO p27 uninduced (proliferating) >= 7.0”.
